This is an account of results in paper PMC4128255 (European journal of medicinal chemistry, 2014).

Ends that are not written are not given here. fluorescein = fluorescein label on the lysine ε-amino group

In one assay the target is eIF4E (GST-eIF4E) (Homo sapiens, UniProt P06730). Description: Fluorescence polarization. Type of assay: binding. As to conditions: for loss in binding affinity: relative to 4EGI-1, FP; for FP ratio: Table 3, IC50 of [Z]-4EGI-1/IC50 of compound in the same plate. (Fluorescence polarisation rises when a labelled molecule tumbles more slowly, as on binding a larger partner.)
Sequence of eIF4E (GST-eIF4E) (P06730 27-217 limits assumed): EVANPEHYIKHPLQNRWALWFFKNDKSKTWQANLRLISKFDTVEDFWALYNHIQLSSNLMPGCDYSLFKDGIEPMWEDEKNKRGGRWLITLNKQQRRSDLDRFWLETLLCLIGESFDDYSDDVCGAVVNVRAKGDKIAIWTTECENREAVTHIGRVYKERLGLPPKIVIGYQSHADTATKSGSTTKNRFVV

Assay [1] concerns cyclin D1, cyclin E, Survivin, β-Actin, α-Tubulin expression in CRL-2813 melanoma cells. Description: Western blot of regulatory and housekeeping protein expression in CRL-2813 cells. As to conditions: 6 hrs. Type of assay: cell-based, Human. (In general: A western blot detects proteins with antibodies after separation by electrophoresis.)
The target in assay [2] is GST-eIF4E fusion protein (recombinant, E. coli-expressed) (not stated (human or mouse cDNA cloned)) (UniProt P06730). Description: fluorescence polarisation.
Sequence of GST-eIF4E fusion protein (recombinant, E. coli-expressed) (not stated (human or mouse cDNA cloned)) (P06730 27-217 limits assumed): as above

As to `O=C(O)C(Cc1ccc(O)cc1)=NNc1nc(-c2ccc(Cl)c(Cl)c2)cs1` [Compound 10d, 2-(2-(4-(3,4-Dichlorophenyl)thiazol-2-yl)hydrazono)-3-(4-hydroxyphenyl)propanoic acid], the “loss in binding affinity” value at eIF4E (GST-eIF4E) is given as 30–40%.
Still for that read-out and setting: for `O=C(O)C(Cc1ccc(C(F)(F)F)cc1)=NNc1nc(-c2ccc(Cl)c(Cl)c2)cs1` [Compound 10i, 2-(2-(4-(3,4-Dichlorophenyl)thiazol-2-yl)hydrazono)-3-(4-(trifluoromethyl)phenyl)propanoic acid] the value was 30–40%.
For “3-(4-Amino-3-nitrophenyl)-2-(2-(5-(3,4-dichlorophenyl)thiazol-2-yl)hydrazono)propanoic acid [[E]-11a]”, at eIF4E (GST-eIF4E), the FP ratio amounted to 1.0.
Same read-out and setting: for “2-(2-(5-(3,4-Dichlorophenyl)thiazol-2-yl)hydrazono)-3-(4-hydroxy-3-nitrophenyl)propanoic acid [[Z]-11c]” the value was 1.1; for “4-(2-Carboxy-2-(2-(5-(3,4-dichlorophenyl)thiazol-2-yl)hydrazono)ethyl)-3-nitrobenzoic acid [[E]-11b]”, 0.6; for “2-(2-(5-(3,4-Dichlorophenyl)thiazol-2-yl)hydrazono)-3-(4-hydroxy-3-nitrophenyl)propanoic acid [[E]-11c]”, 0.9.
In the case of `O=C(O)/C(Cc1ccccc1[N+](=O)[O-])=N\Nc1nc(-c2ccc(O)cc2)cs1` [[Z]-12b, 2-(2-(4-(4-Hydroxyphenyl)thiazol-2-yl)hydrazono)-3-(2-nitrophenyl)propanoic acid], in assay [1], the “expression of housekeeping proteins β-Actin and α-Tubulin” value is “no effect”; the “expression of regulatory proteins cyclin D1, cyclin E, and Survivin” value is reported as “no effect”.
As to `O=C(O)/C(Cc1ccccc1[N+](=O)[O-])=N\Nc1nc(-c2ccc(Cl)c(Cl)c2)cs1` [[Z]-4EGI-1, 2-(2-(4-(3,4-Dichlorophenyl)thiazol-2-yl)hydrazono)-3-(2-nitrophenyl)propanoic acid, reference compound], in assay [1], the “expression of housekeeping proteins β-Actin and α-Tubulin” value is listed as “not affected”; the “expression of regulatory proteins cyclin D1, cyclin E, and Survivin” value is “markedly reduced”.
Turning to “4-(2-Carboxy-2-(2-(5-(3,4-dichlorophenyl)thiazol-2-yl)hydrazono)ethyl)-3-nitrobenzoic acid [[Z]-11b]”, the FP ratio at eIF4E (GST-eIF4E) is 0.9.
As for KYTYDELFQLK(fluorescein)-OH [fluorescein labeled eIF4G-derived peptide …(ε-Flu)-OH], the Kd (as a rule, the equilibrium constant for the complex coming apart) in assay [2] worked out at 3 µM.
